Reference: patent publication US12378224B2 (Dong-A Socio Holdings Co., Ltd., priority 2016, dated 2025)

Experiments:
[1] = biological target: human MER (528-end) (Homo sapiens (Human), UniProt Q12866); experiment: HTRF Kinase Activity Biochemical Assay (KinEASE-TK); conditions: 10 uM ATP
Procedure, shortened: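 Activity read-out is the HTRF ratio (665 nm over 620 nm emission, ×10,000; excitation 340 nm) after 1 h detection with 0.375 nM Eu3+-cryptate anti-TK antibody plus 0.062 uM SA-XL665. Preceding kinase step: human MER (528-end), biotinylated TK substrate, 1 h, room temperature.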

[2] = biological target: BCR fusion to kinase domain of MerTK (Ba/F3-MerTK) (Homo sapiens, UniProt Q12866); experiment: In Cell TAM Kinase Assay Using BaF3 Cellular System; assay type: cell-based, murine; conditions: Ba/F3 BCR-kinase fusion proliferation, 72 hours, Cell Titer Glo; kinase not given; read-out: IC50
Description: Three Ba/F3 cell lines (a murine IL-3 dependent pro-B cell line) expressing BCR fusions to the kinase domains of either MerTK (Ba/F3-MerTK), Axl (Ba/F3-Axl), or Tyro3 (Ba/F3-Tyro3) were purchased from Advanced Cellular Dynamics. The IL-3 independence of all 3 cell lines was confirmed. After thawing, the 3 Ba/F3 cell lines were split and maintained in cell culture media, which consisted of RPMI-1640-HEPES (Thermo-Cat #22400-089) with 1× Glutamax (Thermo-Cat #35050-061) and 10% FBS (Sigma-Cat #F4135 (500 ml), at a cell density range of 0.05×10^6−1×10^6 cells/mL 4 days before used in the routine screen. Compound plates were prepared using Nunc™ white 384-well optical bottom plates (ThermoFisher, USA) with compound in 25 nL dimethyl sulfoxide in each well. For routine assays, each of the 3 Ba/F3 cell lines was seeded at 1,000 cells per well with 25 µL of cell culture media directly into 384-well compound plates and incubated for 72 hours. Cell proliferation was then measured by adding 25 μL of Cell Titer Glo 2.0 (Promega, USA). After incubating with Cell Titer Glo at room temperature for 30 mins, the luminescence intensity, which quantifies the cell viability, was measured using an Envision™ plate reader (PerkinElmer, USA). […] In the presence of IL-3, the proliferation of the Ba/F3-Tyro3 cells is no longer dependent on the Tyro3 kinase activity.

human MER (528-end), sequence (Q12866 528-999 limits assumed): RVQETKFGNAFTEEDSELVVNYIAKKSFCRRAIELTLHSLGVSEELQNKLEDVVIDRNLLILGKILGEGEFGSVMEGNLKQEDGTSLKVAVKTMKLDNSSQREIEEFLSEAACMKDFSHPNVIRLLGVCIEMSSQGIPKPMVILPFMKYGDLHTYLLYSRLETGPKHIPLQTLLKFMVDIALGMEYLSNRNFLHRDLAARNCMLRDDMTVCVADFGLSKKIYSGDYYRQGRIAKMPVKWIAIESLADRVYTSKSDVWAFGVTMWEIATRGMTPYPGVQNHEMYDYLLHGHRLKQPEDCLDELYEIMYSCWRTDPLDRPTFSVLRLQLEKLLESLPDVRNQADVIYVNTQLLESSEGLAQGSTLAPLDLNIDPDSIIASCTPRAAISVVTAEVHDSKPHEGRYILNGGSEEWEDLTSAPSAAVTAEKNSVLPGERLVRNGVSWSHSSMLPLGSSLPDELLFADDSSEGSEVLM
BCR fusion to kinase domain of MerTK (Ba/F3-MerTK), sequence (Q12866 21-999 limits assumed, stated change not applied): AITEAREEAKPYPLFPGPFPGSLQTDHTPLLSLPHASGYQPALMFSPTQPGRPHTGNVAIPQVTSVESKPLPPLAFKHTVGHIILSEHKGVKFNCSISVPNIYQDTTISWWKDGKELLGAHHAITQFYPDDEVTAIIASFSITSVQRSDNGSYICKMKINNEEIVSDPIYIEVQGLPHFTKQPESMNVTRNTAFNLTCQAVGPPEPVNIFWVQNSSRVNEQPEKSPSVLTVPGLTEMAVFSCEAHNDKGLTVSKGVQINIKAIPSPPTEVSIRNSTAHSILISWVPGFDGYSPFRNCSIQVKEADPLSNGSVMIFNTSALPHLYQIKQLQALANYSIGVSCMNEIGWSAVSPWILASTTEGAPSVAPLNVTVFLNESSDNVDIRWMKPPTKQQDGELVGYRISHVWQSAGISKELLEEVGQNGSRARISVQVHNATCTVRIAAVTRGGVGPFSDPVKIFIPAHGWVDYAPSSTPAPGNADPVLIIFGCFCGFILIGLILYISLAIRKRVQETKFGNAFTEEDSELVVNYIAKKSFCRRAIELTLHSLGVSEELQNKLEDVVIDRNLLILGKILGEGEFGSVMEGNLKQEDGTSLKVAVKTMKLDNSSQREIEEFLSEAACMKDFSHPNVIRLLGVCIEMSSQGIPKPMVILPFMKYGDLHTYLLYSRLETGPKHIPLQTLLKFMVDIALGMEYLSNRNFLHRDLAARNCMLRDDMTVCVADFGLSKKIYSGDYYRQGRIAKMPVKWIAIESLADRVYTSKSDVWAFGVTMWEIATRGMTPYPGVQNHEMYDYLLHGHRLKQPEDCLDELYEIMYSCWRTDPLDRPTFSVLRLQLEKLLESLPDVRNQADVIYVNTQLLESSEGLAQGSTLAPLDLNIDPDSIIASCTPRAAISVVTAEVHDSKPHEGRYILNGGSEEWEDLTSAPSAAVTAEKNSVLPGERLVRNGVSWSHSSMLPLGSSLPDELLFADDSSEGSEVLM

Row | Compound | IC50 [1] | IC50 [2]
1 | Cn1cc(-c2cnc(N)c(C(=O)N[C@@H]3CCN(C(=O)OC4CCCC(c5ccccc5)C4)C3)c2)cn1 (stereo partly drawn) [Example 129, 3-phenylcyclohexyl (3R)-3-(2-amino-5-(1-methyl-1H-pyrazol-4-yl)nicotinamido)pyrrolidine-1-carboxylate] | > 1000 nM | 100 to 500 nM
2 | Cn1cc(-c2cnc(N)c(C(=O)N[C@@H]3CCN(C(=O)c4ccc(-c5ccc(F)cc5F)cc4)C3)c2)cn1 [Example 365, (R)-2-amino-N-(1-(2′,4′-difluoro-[1,1′-biphenyl]-4-carbonyl)pyrrolidin-3-yl)-5-(1-methyl-1H-pyrazol-4-yl)nicotinamide] | 10 to 100 nM | > 1000 nM
3 | Cn1cc(-c2cnc(N)c(C(=O)N[C@@H]3CCN(C(=O)c4ccc(-c5ccc(F)cc5Cl)cc4)C3)c2)cn1 [Example 366, (R)-2-amino-N-(1-(2′-chloro-4′-fluoro-[1,1′-biphenyl]-4-carbonyl)pyrrolidin-3-yl)-5-(1-methyl-1H-pyrazol-4-yl)nicotinamide] | 10 to 100 nM | 100 to 500 nM
4 | Cn1cc(-c2cnc(N)c(C(=O)N[C@@H]3CCN(C(=O)c4ccc(-c5ccccc5F)cc4)C3)c2)cn1 [Example 370, (R)-2-amino-N-(1-(2′-fluoro-[1,1′-biphenyl]-4-carbonyl)pyrrolidin-3-yl)-5-(1-methyl-1H-pyrazol-4-yl)nicotinamide] | 10 to 100 nM | > 1000 nM
5 | Cn1cc(-c2cnc(N)c(C(=O)N[C@@H]3CCN(C(=O)c4ccc(-c5ccc(C=O)cc5)cc4)C3)c2)cn1 [Example 381, (R)-2-amino-N-(1-(4′-formyl-[1,1′-biphenyl]-4-carbonyl)pyrrolidin-3-yl)-5-(1-methyl-1H-pyrazol-4-yl)nicotinamide] | 100 to 1000 nM | > 1000 nM
6 | Cn1cc(-c2cnc(N)c(C(=O)N[C@@H]3CCN(C(=O)c4ccc(-c5ccc(Oc6ccc(N)cc6)cc5)cc4)C3)c2)cn1 [Example 505, (R)-2-amino-N-(1-(4′-(4-aminophenoxy)-[1,1′-biphenyl]-4-carbonyl)pyrrolidin-3-yl)-5-(1-methyl-1H-pyrazol-4-yl)nicotinamide] | 100 to 1000 nM | > 1000 nM
7 | Cc1cscc1-c1ccc(C(=O)N2CC[C@@H](NC(=O)c3cc(-c4cnn(C)c4)cnc3N)C2)cc1 [Example 523, (R)-2-amino-5-(1-methyl-1H-pyrazol-4-yl)-N-(1-(4-(4-methylthiophen-3-yl)benzoyl)pyrrolidin-3-yl)nicotinamide] | 10 to 100 nM | 500 to 1000 nM
8 | Cc1csc(-c2ccc(C(=O)N3CC[C@@H](NC(=O)c4cc(-c5cnn(C)c5)cnc4N)C3)cc2)c1 [Example 525, (R)-2-amino-5-(1-methyl-1H-pyrazol-4-yl)-N-(1-(4-(4-methylthiophen-2-yl)benzoyl)pyrrolidin-3-yl)nicotinamide] | 10 to 100 nM | 100 to 500 nM
9 | Cc1ccc(-c2ccc(C(=O)N3CC[C@@H](NC(=O)c4cc(-c5cnn(C)c5)cnc4N)C3)cc2)s1 [Example 526, (R)-2-amino-5-(1-methyl-1H-pyrazol-4-yl)-N-(1-(4-(5-methylthiophen-2-yl)benzoyl)pyrrolidin-3-yl)nicotinamide] | 10 to 100 nM | > 1000 nM
10 | Cn1cc(-c2cnc(N)c(C(=O)N[C@@H]3CCN(C(=O)c4ccc(-c5ccc(Cl)s5)cc4)C3)c2)cn1 [Example 534, (R)-2-amino-N-(1-(4-(5-chlorothiophen-2-yl)benzoyl)pyrrolidin-3-yl)-5-(1-methyl-1H-pyrazol-4-yl)nicotinamide] | 10 to 100 nM | > 1000 nM

Results, then the compound that gave them:

Row | IC50 [1] | IC50 [2] | Compound
11 | > 1000 nM | > 1000 nM | Cn1cc(-c2cnc(N)c(C(=O)N[C@@H]3CCN(C(=O)C(=O)c4ccccc4)C3)c2)cn1 [Example 546, (R)-2-amino-5-(1-methyl-1H-pyrazol-4-yl)-N-(1-(2-oxo-2-phenylacetyl)pyrrolidin-3-yl)nicotinamide]
12 | 10 to 100 nM | > 1000 nM | CC(C)(c1ccc(-c2cnc(N)c(C(=O)N[C@@H]3CCN(C(=O)c4ccc(-c5ccccc5)cc4)C3)c2)cc1)N1CCN(CCO)CC1 [Example 565, (R)—N -(1-([1,1′-biphenyl]-4-carbonyl)pyrrolidin-3-yl)-2-amino-5-(4-(2-(4-(2-hydroxyethyl)piperazin-1-yl)propan-2-yl)phenyl)nicotinamide]
13 | 10 to 100 nM | > 1000 nM | CN1CCN(Cc2ccc(-c3cnc(N)c(C(=O)N[C@@H]4CCN(C(=O)c5ccc(-c6ccccc6)cc5)C4)c3)cc2)CC1 [Example 567, (R)—N-(1-([1,1′-biphenyl]-4-carbonyl)pyrrolidin-3-yl)-2-amino-5-(4-((4-methylpiperazin-1-yl)methyl)phenyl)nicotinamide]
14 | 10 to 100 nM | > 1000 nM | Nc1ncc(-c2ccc(N3CCOCC3)nc2)cc1C(=O)N[C@@H]1CCN(C(=O)c2ccc(-c3ccc(F)cc3Cl)cc2)C1 [Example 584, (R)-6-amino-N-(1-(2′-chloro-4′-fluoro-[1,1′-biphenyl]-4-carbonyl)pyrrolidin-3-yl)-6′-morpholino-[3,3′-bipyridine]-5-carboxamide]
15 | 10 to 100 nM | 500 to 1000 nM | Nc1ncc(-c2cnn(Cc3cccnc3)c2)cc1C(=O)N[C@@H]1CCN(C(=O)c2ccc(-c3ccc(F)cc3Cl)cc2)C1 [Example 586, (R)-2-amino-N-(1-(2′-chloro-4′-fluoro-[1,1′-biphenyl]-4-carbonyl)pyrrolidin-3-yl)-5-(1-(pyridin-3-ylmethyl)-1H-pyrazol-4-yl)nicotinamide]
16 | 10 to 100 nM | > 1000 nM | CN1CCN(C(=O)c2ccc(-c3cnc(N)c(C(=O)N[C@@H]4CCN(C(=O)c5ccc(-c6ccccc6Cl)cc5)C4)c3)cc2)CC1 [Example 588, (R)-2-amino-N-(1-(2′-chloro-[1,1′-biphenyl]-4-carbonyl)pyrrolidin-3-yl)-5-(4-(4-methylpiperazine-1-carbonyl)phenyl)nicotinamide]
17 | 10 to 100 nM | > 1000 nM | Nc1ncc(-c2ccc(C(=O)N3CCOCC3)cc2)cc1C(=O)N[C@@H]1CCN(C(=O)c2ccc(-c3ccccc3Cl)cc2)C1 [Example 590, (R)-2-amino-N-(1-(2′-chloro-[1,1′-biphenyl]-4-carbonyl)pyrrolidin-3-yl)-5-(4-(morpholine-4-carbonyl)phenyl)nicotinamide]
18 | 10 to 100 nM | > 1000 nM | Nc1ncc(-c2ccc(C(=O)NC3CCOCC3)cc2)cc1C(=O)N[C@@H]1CCN(C(=O)c2ccc(-c3ccccc3Cl)cc2)C1 [Example 593, (R)-2-amino-N-(1-(2′-chloro-[1,1′-biphenyl]-4-carbonyl)pyrrolidin-3-yl)-5-(4-((tetrahydro-2H-pyran-4-yl)carbamoyl)phenyl)nicotinamide]
19 | < 10 nM | 500 to 1000 nM | Cn1cc(-c2cnc(N)c(C(=O)N[C@@H]3CCN(C(=O)c4ccc(-c5ccc(Oc6ccc(CN)cc6)cc5)cc4)C3)c2)cn1 [Example 634, (R)-2-amino-N-(1-(4′-(4-(aminomethyl)phenoxy)-[1,1′-biphenyl]-4-carbonyl)pyrrolidin-3-yl)-5-(1-methyl-1H-pyrazol-4-yl)nicotinamide]
20 | 10 to 100 nM | 100 to 500 nM | Cn1cc(-c2cnc(N)c(C(=O)N[C@@H]3CCN(C(=O)c4ccc(-c5ccc(Oc6ccc(CO)cc6)cc5)cc4)C3)c2)cn1 [Example 635, (R)-2-amino-N-(1-(4′-(4-(hydroxymethyl)phenoxy)-[1,1′-biphenyl]-4-carbonyl)pyrrolidin-3-yl)-5-(1-methyl-1H-pyrazol-4-yl)nicotinamide]
21 | 10 to 100 nM | 100 to 500 nM | CN(C)Cc1ccc(Oc2ccc(-c3ccc(C(=O)N4CC[C@@H](NC(=O)c5cc(-c6cnn(C)c6)cnc5N)C4)cc3)cc2)cc1 [Example 636, (R)-2-amino-N-(1-(4′-(4-((dimethylamino)methyl)phenoxy)-[1,1′-biphenyl]-4-carbonyl)pyrrolidin-3-yl)-5-(1-methyl-1H-pyrazol-4-yl)nicotinamide]
22 | 100 to 1000 nM | > 1000 nM | CN1CCC(Cc2ccc(-c3ccc(C(=O)N4CC[C@@H](NC(=O)c5cc(-c6cnn(C)c6)cnc5N)C4)cc3)cc2)CC1 [Example 643, (R)-2-amino-5-(1-methyl-1H-pyrazol-4-yl)-N-(1-(4′-((1-methylpiperidin-4-yl)methyl)-[1,1′-biphenyl]-4-carbonyl)pyrrolidin-3-yl)nicotinamide]
23 | 10 to 100 nM | 100 to 500 nM | CN1CCC(N(C)c2ccc3cc(C(=O)N4CC[C@@H](NC(=O)c5cc(-c6cnn(C)c6)cnc5N)C4)ccc3c2)CC1 [Example 644, (R)-2-amino-N-(1-(6-(methyl(1-methylpiperidin-4-yl)amino)-2-naphthoyl)pyrrolidin-3-yl)-5-(1-methyl-1H-pyrazol-4-yl)nicotinamide]
24 | 10 to 100 nM | < 100 nM | Cc1cccc(-c2ccc(C(=O)N3CC[C@@H](NC(=O)c4cc(-c5cnn(C)c5)cnc4N)C3)cc2)c1 [Example 656, (R)-2-amino-5-(1-methyl-1H-pyrazol-4-yl)-N-(1-(3′-methyl-[1,1′-biphenyl]-4-carbonyl)pyrrolidin-3-yl)nicotinamide]
